Data reported in patent US8497296B2, “N,N′-hydrazino-bis-isatin derivatives with selective activity against multidrug-resistant cancer cells” (King Saud University, priority 2011, dated 2013).

Key:
KB-3-1 cells = experiment: MTT cytotoxicity assay, parental KB-3-1 cell line; assay type: cell-based; conditions: Homo sapiens, parental KB-3-1 cells (HeLa derivative), 72 h incubation, at least three experiments, read-out: IC50 KB3-1
Method: (§1) The cytotoxicity of the prepared compounds was evaluated at Laboratory of Cell Biology, National Cancer Institute, National Institutes of Health, Bethesda, Md. 20892, Group in Biomolecular, USA, using the following protocol:
KB-3-1 cells (a HeLa deriviative) and its MDR derivative (KB-V1) were grown as previously described. Cell survival was measured by the MTT (3-(4,5-dimethylthiazol-2-yl)-2,5-diphenyltetrazolium bromide) assay as previously described. Briefly, cells were seeded in 100 μL of growth medium at a density of 5000 cells/well in 96-well plates and allowed to establish for 24 h, at which time serially diluted drugs were added in an additional 100 μL of growth medium. Cells were then incubated for 72 h at 37° C. in humidified 5% CO2, at which time the growth medium was drawn and replaced with MTT in IMDM growth medium and incubated for 4 h. The MTT solution was then drawn from the wells, and 100 μL of acidified ethanol solution was added to each well and after 15 min absorption at 560 nm was measured. […] The effect of treatment on cell viability was determined using the luminescent Cell Titer Glo Assay (Promega).

KB-V1 cells = experiment: MTT cytotoxicity assay, P-glycoprotein-expressing MDR cell line KB-V1; assay type: cell-based; conditions: for IC50: Homo sapiens, P-glycoprotein-expressing MDR KB-V1 cells, 72 h incubation, MTT, at least three experiments, read-out: IC50 KBV1; for RR (MDR1 selectivity): ratio of IC50 against KB-3-1 cells divided by IC50 against KB-V1 cells, >1 = MDR1-selective
Method: as §1
KB-3-1 cells (a HeLa deriviative) and its MDR derivative (KB-V1) were grown as previously described. Cell survival was measured by the MTT (3-(4,5-dimethylthiazol-2-yl)-2,5-diphenyltetrazolium bromide) assay as previously described. Briefly, cells were seeded in 100 μL of growth medium at a density of 5000 cells/well in 96-well plates and allowed to establish for 24 h, at which time serially diluted drugs were added in an additional 100 μL of growth medium. Cells were then incubated for 72 h at 37° C. in humidified 5% CO2, at which time the growth medium was drawn and replaced with MTT in IMDM growth medium and incubated for 4 h. The MTT solution was then drawn from the wells, and 100 μL of acidified ethanol solution was added to each well and after 15 min absorption at 560 nm was measured. […]

Row | Structure (SMILES) | IC50 (KB-3-1 cells) [µM] | IC50 (KB-V1 cells) [µM] | RR (MDR1 selectivity) (KB-V1 cells)
1 | N/N=C1\C(=O)Nc2ccccc21 [Compound 2a, (Z)-3-Hydrazonoindolin-2-one] | > 500 | 125 ± 39.4 | 
2 | O=C1Nc2ccccc2/C1=N/N=C1\C(=O)Nc2ccccc21 [Compound 3, (3Z,3′Z)-3,3′-(Hydrazine-1,2-diylidene)diindolin-2-one] | 17.1 ± 0.83 | 17.3 ± 1.59 | 0.99
3 | O=C1Nc2ccccc2/C1=N/N=C1\C(=O)N(c2ccccc2)c2ccccc21 [Compound 4, (Z)-3-((Z)-(2-Oxoindolin-3-ylidene)hydrazono)-1-phenylindolin-2-one] | 8.7 ± 2.21 | 10.8 ± 1.1 | 0.81
4 | O=C1Nc2ccccc2/C1=N/N=C1\C(=O)Nc2ccc(F)cc21 [Compound 5, (Z)-5-Fluoro-3-((Z)-(2-oxoindolin-3-ylidene)hydrazono)indolin-2-one] | 28.1 ± 2.48 | 25.3 ± 10.1 | 1.11
5 | O=C1Nc2ccccc2/C1=N/N=C1\C(=O)Nc2ccc(Cl)cc21 [Compound 6, (Z)-5-Chloro-3-((Z)-(2-oxoindolin-3-ylidene)hydrazono)indolin-2-one] | 9.67 ± 1.74 | 7.72 ± 0.5 | 1.25
6 | O=C1Nc2ccccc2/C1=N/N=C1\C(=O)Nc2ccc(Br)cc21 [Compound 7, (Z)-5-Bromo-3-((Z)-(2-oxoindolin-3-ylidene)hydrazono)indolin-2-one] | 9.71 ± 0.31 | 7.58 ± 1.43 | 1.28
7 | Cc1ccc2c(c1)/C(=N/N=C1\C(=O)Nc3ccccc31)C(=O)N2 [Compound 8, (Z)-5-Methyl-3-((Z)-(2-oxoindolin-3-ylidene)hydrazono)indolin-2-one] | 12.1 ± 3.14 | 14.9 ± 1.26 | 0.81
8 | O=C1Nc2ccccc2/C1=N/N=C1\C(=O)Nc2ccc([N+](=O)[O-])cc21 [Compound 9, (Z)-5-Nitro-3-((Z)-(2-oxoindolin-3-ylidene)hydrazono)indolin-2-one] | 29.2 ± 2.81 | 30.4 ± 6.75 | 0.96
9 | O=C1Nc2ccccc2/C1=N/N=C1\C(=O)Nc2ccc(OC(F)(F)F)cc21 [Compound 10, (Z)-3-((Z)-(2-Oxoindolin-3-ylidene)hydrazono)-5-(trifluoromethoxy)indolin-2-one] | 9.75 ± 0.11 | 5.67 ± 1.18 | 1.72
10 | O=C1/C(=N\N=C2/C(=O)N(c3ccccc3)c3ccccc32)c2ccccc2N1c1ccccc1 [Compound 11, (3Z,3′Z)-3,3′-(Hydrazine-1,2-diylidene)bis(1-phenylindolin-2-one)] | 25.6 ± 2.39 | 22 ± 2.37 | 1.16
11 | O=C1Nc2ccc(F)cc2/C1=N/N=C1\C(=O)N(c2ccccc2)c2ccccc21 [Compound 12, (Z)-5-Fluoro-3-((Z)-(2-oxo-1-phenylindolin-3-ylidene)hydrazono)indolin-2-one] | 10.2 ± 1.52 | 11.2 ± 0.61 | 0.91
12 | O=C1Nc2ccc(Cl)cc2/C1=N/N=C1\C(=O)N(c2ccccc2)c2ccccc21 [Compound 13, (Z)-5-Chloro-3-((Z)-(2-oxo-1-phenylindolin-3-ylidene)hydrazono)indolin-2-one] | 6.79 ± 0.63 | 6.07 ± 1.19 | 1.12
13 | O=C1Nc2ccc(Br)cc2/C1=N/N=C1\C(=O)N(c2ccccc2)c2ccccc21 [Compound 14, (Z)-5-Bromo-3-((Z)-(2-oxo-1-phenylindolin-3-ylidene)hydrazono)indolin-2-one] | 7.93 ± 2.11 | 8.71 ± 0.27 | 0.91
14 | Cc1ccc2c(c1)/C(=N/N=C1\C(=O)N(c3ccccc3)c3ccccc31)C(=O)N2 [Compound 15, (Z)-5-Methyl-3-((Z)-(2-oxo-1-phenylindolin-3-ylidene)hydrazono)indolin-2-one] | 8.37 ± 0.62 | 8.06 ± 1.68 | 1.04
15 | O=C1Nc2ccc([N+](=O)[O-])cc2/C1=N/N=C1\C(=O)N(c2ccccc2)c2ccccc21 [Compound 16, (Z)-5-Nitro-3-((Z)-(2-oxo-1-phenylindolin-3-ylidene)hydrazono)indolin-2-one] | 37.1 ± 4.05 | 48.6 ± 2.32 | 0.76
16 | O=C1Nc2ccc(OC(F)(F)F)cc2/C1=N/N=C1\C(=O)N(c2ccccc2)c2ccccc21 [Compound 17, ((Z)-3-(Z)-(2-oxo-1-phenylindolin-3-ylidene)hydrazono)-5-(trifluoromethoxy)indolin-2-one] | 7.67 ± 0.88 | 4.8 ± 0.12 | 1.60
17 | O=C1Nc2ccc(F)cc2/C1=N/N=C1\C(=O)Nc2ccc(F)cc21 [Compound 18, (3Z,3′Z)-3,3′-(Hydrazine-1,2-diylidene)bis(5-fluoroindolin-2-one)] | 20.4 ± 4.62 | 16.5 ± 6.28 | 1.23
18 | O=C1Nc2ccc(F)cc2/C1=N/N=C1\C(=O)Nc2ccc(Cl)cc21 [Compound 19, (Z)-5-Chloro-3-((Z)-(5-fluoro-2-oxoindolin-3-ylidene)hydrazono)indolin-2-one] | 17.4 ± 4.41 | 11.3 ± 3.26 | 1.54
19 | O=C1Nc2ccc(F)cc2/C1=N/N=C1\C(=O)Nc2ccc(Br)cc21 [Compound 20, (Z)-5-Bromo-3-((Z)-(5-fluoro-2-oxoindolin-3-ylidene)hydrazono)indolin-2-one] | 15.4 ± 3.97 | 18.6 ± 2.01 | 0.83
20 | Cc1ccc2c(c1)/C(=N/N=C1\C(=O)Nc3ccc(F)cc31)C(=O)N2 [Compound 21, (Z)-5-Fluoro-3-((Z)-(5-methyl-2-oxoindolin-3-ylidene)hydrazono)indolin-2-one] | 18.9 ± 0.46 | 17.9 ± 0.82 | 1.06
21 | O=C1Nc2ccc(F)cc2/C1=N/N=C1\C(=O)Nc2ccc([N+](=O)[O-])cc21 [Compound 22, (Z)-5-Fluoro-3-((Z)-(5-nitro-2-oxoindolin-3-ylidene)hydrazono)indolin-2-one] | 56 ± 1.5 | 38.6 ± 13.5 | 1.45
22 | O=C1Nc2ccc(F)cc2/C1=N/N=C1\C(=O)Nc2ccc(OC(F)(F)F)cc21 [Compound 23, (Z)-5-Fluoro-3-((Z)-(2-oxo-5-(trifluoromethoxy)indolin-3-ylidene)hydrazono)indolin-2-one] | 15.2 ± 1.34 | 11.6 ± 2.55 | 1.31
